Assay results from ChEMBL document CHEMBL4334511, “Trivirensols: Selectively Bacteriostatic Sesquiterpene Trimers from the Australian Termite Nest-Derived Fungus Trichoderma virens CMB-TN16” (J Nat Prod, 2019).
Activity calls are given as the source filed them. The rule behind the calls is not given here.

Experiments:
[1] = tested on: Streptococcus pyogenes; assay: Antibacterial activity against Streptococcus pyogenes ATCC 12344 assessed as reduction in […] growth at 0.01 to 30 uM incubated for 24 hrs by spectrophotometry based broth microdilution assay; assay type: functional, organism-based
[2] = tested on: Staphylococcus aureus; assay: Antibacterial activity against methicillin-resistant Staphylococcus aureus AUS-RBWH-MRSA-02 assessed as reduction in […] growth at 0.01 to 30 uM incubated for 24 hrs by spectrophotometry based broth microdilution assay; assay type: functional, organism-based
[3] = tested on: SW-620; assay: Cytotoxicity against human SW620 cells assessed as reduction in cell viability upto 30 uM incubated for 48 hrs by MTT assay; assay type: cell-based; conditions: sw-620, 48 h
[4] = tested on: Klebsiella pneumoniae; assay: Antibacterial activity against OXA-48-producing Klebsiella pneumoniae SA-Rd-KAMC-014 assessed as reduction in […] growth at 0.01 to 30 uM incubated for 24 hrs by spectrophotometry based broth microdilution assay; assay type: functional, organism-based
[5] = tested on: Candida albicans; assay: Antifungal activity against Candida albicans ATCC 90028 assessed as reduction in fungal growth at 0.01 to 30 uM incubated for 24 hrs by spectrophotometry based broth microdilution assay; assay type: functional, organism-based
[6] = tested on: Klebsiella pneumoniae; assay: Antibacterial activity against NDM-producing Klebsiella pneumoniae SA-Rd-KAMC-037 assessed as reduction in […] growth at 0.01 to 30 uM incubated for 24 hrs by spectrophotometry based broth microdilution assay; assay type: functional, organism-based
[7] = tested on: Escherichia coli; assay: Antibacterial activity against Escherichia coli KUW-kw-AmH-11 assessed as reduction in […] growth at 0.01 to 30 uM incubated for 24 hrs by spectrophotometry based broth microdilution assay; assay type: functional, organism-based
[8] = tested on: NCI-H460; assay: Cytotoxicity against human NCI-H460 cells assessed as reduction in cell viability upto 30 uM incubated for 48 hrs by MTT assay; assay type: cell-based; conditions: nci-h460, 48 h
[9] = tested on: Acinetobacter baumannii; assay: Antibacterial activity against OXA-23-producing Acinetobacter baumannii SA-Rd-KAMC-083 assessed as reduction in […] growth at 0.01 to 30 uM incubated for 24 hrs by spectrophotometry based broth microdilution assay; assay type: functional, organism-based
[10] = tested on: Escherichia coli; assay: Antibacterial activity against Escherichia coli ATCC 11775 assessed as reduction in […] growth at 0.01 to 30 uM incubated for 24 hrs by spectrophotometry based broth microdilution assay; assay type: functional, organism-based
[11] = tested on: Staphylococcus aureus; assay: Antibacterial activity against Staphylococcus aureus ATCC 9144 assessed as reduction in […] growth at 0.01 to 30 uM incubated for 24 hrs by spectrophotometry based broth microdilution assay; assay type: functional, organism-based
[12] = tested on: Pseudomonas aeruginosa; assay: Antibacterial activity against IMP producing Pseudomonas aeruginosa UAE-DBI-ZMH-91 assessed as reduction in […] growth at 0.01 to 30 uM incubated for 24 hrs by spectrophotometry based broth microdilution assay; assay type: functional, organism-based
[13] = tested on: Pseudomonas aeruginosa; assay: Antibacterial activity against VIM producing Pseudomonas aeruginosa SA-EP-KFUH-40 assessed as reduction in […] growth at 0.01 to 30 uM incubated for 24 hrs by spectrophotometry based broth microdilution assay; assay type: functional, organism-based
[14] = tested on: Bacillus subtilis; assay: Antibacterial activity against Bacillus subtilis ATCC 6633 assessed as reduction in […] growth at 0.01 to 30 uM incubated for 24 hrs by spectrophotometry based broth microdilution assay; assay type: functional, organism-based
[15] = tested on: Enterococcus faecalis; assay: Antibacterial activity against vancomycin-resistant Enterococcus faecalis AUS-RBWH-VRE-01 assessed as fold reduction in growth by measuring colony formation unit at 30 uM incubated for 24 hrs by time kill assay; assay type: functional

Row | Compound | Activity [1] | Activity [2] | Activity [3] | Activity [4] | Activity [5] | Activity [6] | Activity [7] | Activity [8] | Activity [9] | Activity [10] | Activity [11] | Activity [12] | Activity [13] | Activity [14] | Activity [15] | fold change (FC) [15]
1 | CC(C)[C@H]1CC[C@@](O)(COC(=O)/C(=C/[C@H]2C3=C(CC[C@@H]2C(C)C)COC3=O)CO)[C@@H](C(=O)O)[C@@H]1/C=C(\CO)C(=O)O | inactive | inactive | Non-Toxic | inactive | inactive | inactive | inactive | Non-Toxic | inactive | inactive | inactive | inactive | inactive | inactive | Active | –
2 | CC(C)[C@H]1CC[C@@]2(OC(=O)/C(=C/[C@H]3C=C(CO)CC[C@@H]3C(C)C)CO)COC(=O)[C@H]2[C@@H]1/C=C(\CO)C(=O)O | inactive | inactive | Non-Toxic | inactive | inactive | inactive | inactive | Non-Toxic | inactive | inactive | inactive | inactive | inactive | inactive | – | –
3 | CC(C)[C@H]1CC[C@@](O)(COC(=O)C2=C[C@H]3[C@@H](OC2)[C@H](CO)CC[C@@H]3C(C)C)[C@H]2C(=O)OCC(C(=O)O)=C[C@H]12 | inactive | inactive | Non-Toxic | inactive | inactive | inactive | inactive | Non-Toxic | inactive | inactive | inactive | inactive | inactive | inactive | – | –
4 | CN[C@H](CC(C)C)C(=O)N[C@H]1C(=O)N[C@@H](CC(N)=O)C(=O)N[C@H]2C(=O)N[C@H]3C(=O)N[C@H](C(=O)N[C@H](C(=O)O)c4cc(O)cc(O)c4-c4cc3ccc4O)[C@H](O)c3ccc(c(Cl)c3)Oc3cc2cc(c3O[C@@H]2O[C@H](CO)[C@@H](O)[C@H](O)[C@H]2O[C@H]2C[C@](C)(N)[C@H](O)[C@H](C)O2)Oc2ccc(cc2Cl)[C@H]1O [VANCOMYCIN] | – | – | – | – | – | – | – | – | – | – | – | – | – | – | – | 100
5 | CC(C)[C@H]1CC[C@@]2(OC(=O)/C(=C/[C@H]3C4=C(CC[C@@H]3C(C)C)COC4=O)CO)COC(=O)[C@H]2[C@@H]1/C=C(\CO)C(=O)O | inactive | inactive | Non-Toxic | inactive | inactive | inactive | inactive | Non-Toxic | inactive | inactive | inactive | inactive | inactive | inactive | – | –
6 | CC(C)[C@H]1CC[C@@](O)(COC(=O)/C(=C/[C@H]2C=C(CO)CC[C@@H]2C(C)C)CO)[C@H]2C(=O)OCC(C(=O)O)=C[C@H]12 | inactive | inactive | Non-Toxic | inactive | inactive | inactive | inactive | Non-Toxic | inactive | inactive | inactive | inactive | inactive | inactive | – | –
